Legend:
NK1 neurokinin receptor = target: T1, NK1 neurokinin receptor (Homo sapiens, UniProt P25103); experiment: Radioligand binding assay
T1 construct: Eurofins
Procedure: (§1) Secondary pharmacology assays were performed at Eurofins using standard experimental techniques against a total of 86 targets across a broad pharmacological space. Assay details along with experimental protocols are described at https://www.eurofinsdiscoveryservices.com. […] Assays measuring substrate turnover or phosphorylation by isolated proteins were used for kinase and enzyme targets, allowing direct determination of the mode of action of the compounds. […] Assays were run in eight points concentration response mode with half log dilutions and IC50, EC50 or Ki (Cheng and Prusoff [1973]) values determined.

5-HT4 receptor = target: T2, 5-HT4 receptor (Homo sapiens, UniProt Q13639); experiment: Radioligand binding assay
T2 construct: Eurofins
T2 sequence (Q13639 whole entry): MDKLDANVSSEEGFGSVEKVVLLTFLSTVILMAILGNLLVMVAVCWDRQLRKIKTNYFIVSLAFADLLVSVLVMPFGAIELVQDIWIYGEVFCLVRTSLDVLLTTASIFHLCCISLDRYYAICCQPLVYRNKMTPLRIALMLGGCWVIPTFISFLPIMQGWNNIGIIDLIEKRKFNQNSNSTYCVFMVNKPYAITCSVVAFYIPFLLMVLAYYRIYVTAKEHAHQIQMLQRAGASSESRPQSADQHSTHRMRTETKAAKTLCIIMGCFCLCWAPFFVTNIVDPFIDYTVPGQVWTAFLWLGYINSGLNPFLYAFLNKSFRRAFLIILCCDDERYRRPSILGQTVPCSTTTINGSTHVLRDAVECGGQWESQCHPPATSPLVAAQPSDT
Procedure: as §1

[1] = target: T3, Glucocorticoid Receptor NR3C1 (Homo sapiens, UniProt P04150); experiment: Radioligand binding assay
T3 construct: Eurofins
Procedure: as §1

α1A adrenoceptor = target: T4, α1A adrenoceptor (Homo sapiens, UniProt P35348); experiment: Radioligand binding assay
T4 construct: Eurofins
Procedure: as §1

[2] = target: T5, Peroxisome proliferator-activated receptor-γ (Homo sapiens, UniProt P37231); experiment: Radioligand binding assay
T5 construct: Eurofins
Procedure: as §1

M2 muscarinic receptor [3] = target: T6, M2 muscarinic receptor (Homo sapiens, UniProt P08172); experiment: Radioligand binding assay
T6 construct: Eurofins
T6 sequence (P08172 1-466): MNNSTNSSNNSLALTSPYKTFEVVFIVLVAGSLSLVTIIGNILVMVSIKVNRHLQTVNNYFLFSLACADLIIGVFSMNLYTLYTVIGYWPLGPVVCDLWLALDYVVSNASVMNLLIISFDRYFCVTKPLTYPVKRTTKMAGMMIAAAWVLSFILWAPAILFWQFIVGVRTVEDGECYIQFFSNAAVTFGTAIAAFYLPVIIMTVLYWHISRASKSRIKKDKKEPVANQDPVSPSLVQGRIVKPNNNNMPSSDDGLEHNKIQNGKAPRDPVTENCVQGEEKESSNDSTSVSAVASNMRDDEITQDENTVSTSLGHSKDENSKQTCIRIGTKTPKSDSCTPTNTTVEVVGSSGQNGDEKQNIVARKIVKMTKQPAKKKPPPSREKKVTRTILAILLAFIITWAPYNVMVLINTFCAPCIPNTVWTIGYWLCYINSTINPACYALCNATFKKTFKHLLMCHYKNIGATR
Procedure: as §1

5-HT2B receptor = target: T7, 5-HT2B receptor (Homo sapiens, UniProt P41595); experiment: Radioligand binding assay
T7 construct: Eurofins
Procedure: as §1

[4] = target: T8, SST4 somatostatin receptor (Homo sapiens, UniProt P31391); experiment: Radioligand binding assay
T8 construct: Eurofins
T8 sequence (P31391 whole entry): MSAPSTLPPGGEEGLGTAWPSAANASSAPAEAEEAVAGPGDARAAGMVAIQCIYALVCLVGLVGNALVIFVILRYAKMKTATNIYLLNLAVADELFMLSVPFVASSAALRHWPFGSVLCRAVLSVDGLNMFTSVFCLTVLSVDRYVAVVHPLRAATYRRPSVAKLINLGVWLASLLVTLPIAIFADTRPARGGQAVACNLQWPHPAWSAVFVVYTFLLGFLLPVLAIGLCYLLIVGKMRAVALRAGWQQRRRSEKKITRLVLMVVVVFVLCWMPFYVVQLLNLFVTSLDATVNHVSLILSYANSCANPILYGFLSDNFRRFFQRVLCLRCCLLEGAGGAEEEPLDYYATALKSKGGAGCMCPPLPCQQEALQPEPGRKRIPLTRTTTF
Procedure: as §1

AT1 angiotensin receptor = target: T9, AT1 angiotensin receptor (Homo sapiens, UniProt P30556); experiment: Radioligand binding assay
T9 construct: Eurofins
Procedure: as §1

CB1 cannabinoid receptor [5] = target: T10, CB1 cannabinoid receptor (Homo sapiens, UniProt P21554); experiment: Radioligand binding assay
T10 construct: purchased Eurofins
T10 sequence (P21554 whole entry): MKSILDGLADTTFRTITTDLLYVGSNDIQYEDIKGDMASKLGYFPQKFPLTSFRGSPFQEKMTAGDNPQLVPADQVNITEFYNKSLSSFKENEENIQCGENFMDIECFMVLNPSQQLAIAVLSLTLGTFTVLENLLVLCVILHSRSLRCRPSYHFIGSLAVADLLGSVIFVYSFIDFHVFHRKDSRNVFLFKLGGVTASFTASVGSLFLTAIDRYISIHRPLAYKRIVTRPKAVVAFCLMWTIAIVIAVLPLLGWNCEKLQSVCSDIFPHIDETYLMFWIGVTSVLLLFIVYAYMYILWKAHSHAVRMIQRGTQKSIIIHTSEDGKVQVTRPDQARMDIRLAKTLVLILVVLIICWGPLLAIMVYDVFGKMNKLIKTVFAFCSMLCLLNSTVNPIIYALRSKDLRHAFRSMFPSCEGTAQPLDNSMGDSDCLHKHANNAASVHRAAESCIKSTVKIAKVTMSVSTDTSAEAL
Procedure: as §1

[6] = design: method as in Atkinson et al. [2024]; details: ref Atkinson et al. [2024]; cited from earlier work
5-HT7 receptor = target: T11, 5-HT7 receptor (Homo sapiens, UniProt P34969); experiment: Cell based functional assay
T11 construct: Eurofins
T11 sequence (P34969 whole entry): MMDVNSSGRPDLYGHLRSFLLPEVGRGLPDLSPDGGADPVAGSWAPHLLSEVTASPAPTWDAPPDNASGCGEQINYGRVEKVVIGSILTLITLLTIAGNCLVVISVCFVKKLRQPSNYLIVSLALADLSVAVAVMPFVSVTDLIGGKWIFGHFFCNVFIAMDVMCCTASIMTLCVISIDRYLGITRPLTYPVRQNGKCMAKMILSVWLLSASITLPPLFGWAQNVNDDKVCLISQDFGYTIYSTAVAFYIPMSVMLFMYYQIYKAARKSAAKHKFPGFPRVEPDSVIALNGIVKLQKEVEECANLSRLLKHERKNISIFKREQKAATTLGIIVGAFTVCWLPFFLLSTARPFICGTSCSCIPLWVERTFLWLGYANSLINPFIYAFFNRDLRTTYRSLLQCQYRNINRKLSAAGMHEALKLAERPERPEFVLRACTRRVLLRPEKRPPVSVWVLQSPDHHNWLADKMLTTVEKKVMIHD
Procedure: as §1

A1 adenosine receptor = target: T12, A1 adenosine receptor (Homo sapiens, UniProt P30542); experiment: Cell based functional assay; details: mode of action ND
T12 construct: purchased Eurofins
T12 sequence (P30542 whole entry): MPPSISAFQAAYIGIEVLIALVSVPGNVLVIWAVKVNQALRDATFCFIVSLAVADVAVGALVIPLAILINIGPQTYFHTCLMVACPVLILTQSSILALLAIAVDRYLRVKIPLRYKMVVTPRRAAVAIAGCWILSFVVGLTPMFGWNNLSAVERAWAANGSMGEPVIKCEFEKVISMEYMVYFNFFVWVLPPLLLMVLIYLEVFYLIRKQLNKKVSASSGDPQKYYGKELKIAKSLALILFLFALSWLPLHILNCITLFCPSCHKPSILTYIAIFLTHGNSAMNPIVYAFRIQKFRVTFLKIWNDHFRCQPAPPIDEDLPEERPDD
Procedure: as §1

M2 muscarinic receptor [7] = target: T6, M2 muscarinic receptor; experiment: Cell based functional assay
Procedure: as §1

α1B adrenoceptor = target: T13, α1B adrenoceptor (Homo sapiens, UniProt P35368); experiment: Cell based functional assay
T13 construct: Eurofins
T13 sequence (P35368 1-520): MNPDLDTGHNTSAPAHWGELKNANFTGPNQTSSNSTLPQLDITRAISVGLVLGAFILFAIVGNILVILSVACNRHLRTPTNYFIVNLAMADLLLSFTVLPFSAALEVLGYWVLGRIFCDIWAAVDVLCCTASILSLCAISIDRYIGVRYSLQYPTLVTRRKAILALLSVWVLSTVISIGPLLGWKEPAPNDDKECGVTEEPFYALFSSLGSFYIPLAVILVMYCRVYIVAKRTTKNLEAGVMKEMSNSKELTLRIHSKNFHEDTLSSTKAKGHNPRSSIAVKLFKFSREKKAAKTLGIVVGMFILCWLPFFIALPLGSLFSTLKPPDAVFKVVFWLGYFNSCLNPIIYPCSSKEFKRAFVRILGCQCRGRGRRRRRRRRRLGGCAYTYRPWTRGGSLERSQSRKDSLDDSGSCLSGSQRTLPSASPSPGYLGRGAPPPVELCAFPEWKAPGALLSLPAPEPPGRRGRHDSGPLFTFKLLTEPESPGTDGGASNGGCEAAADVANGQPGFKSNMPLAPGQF
Procedure: as §1

A2A adenosine receptor = target: T14, A2A adenosine receptor (Homo sapiens, UniProt P29274); experiment: Cell based functional assay; details: mode of action ND
T14 construct: Eurofins
Procedure: as §1

CB1 cannabinoid receptor [8] = target: T10, CB1 cannabinoid receptor; experiment: Cell based functional assay; details: mode of action ND
Procedure: as §1

NaV1.5 = NaV1.5 (Homo sapiens, UniProt Q14524); experiment: Cardiac ion channel panel; format: cell-based; details: Full curve
NaV1.5, sequence (Q14524 whole entry): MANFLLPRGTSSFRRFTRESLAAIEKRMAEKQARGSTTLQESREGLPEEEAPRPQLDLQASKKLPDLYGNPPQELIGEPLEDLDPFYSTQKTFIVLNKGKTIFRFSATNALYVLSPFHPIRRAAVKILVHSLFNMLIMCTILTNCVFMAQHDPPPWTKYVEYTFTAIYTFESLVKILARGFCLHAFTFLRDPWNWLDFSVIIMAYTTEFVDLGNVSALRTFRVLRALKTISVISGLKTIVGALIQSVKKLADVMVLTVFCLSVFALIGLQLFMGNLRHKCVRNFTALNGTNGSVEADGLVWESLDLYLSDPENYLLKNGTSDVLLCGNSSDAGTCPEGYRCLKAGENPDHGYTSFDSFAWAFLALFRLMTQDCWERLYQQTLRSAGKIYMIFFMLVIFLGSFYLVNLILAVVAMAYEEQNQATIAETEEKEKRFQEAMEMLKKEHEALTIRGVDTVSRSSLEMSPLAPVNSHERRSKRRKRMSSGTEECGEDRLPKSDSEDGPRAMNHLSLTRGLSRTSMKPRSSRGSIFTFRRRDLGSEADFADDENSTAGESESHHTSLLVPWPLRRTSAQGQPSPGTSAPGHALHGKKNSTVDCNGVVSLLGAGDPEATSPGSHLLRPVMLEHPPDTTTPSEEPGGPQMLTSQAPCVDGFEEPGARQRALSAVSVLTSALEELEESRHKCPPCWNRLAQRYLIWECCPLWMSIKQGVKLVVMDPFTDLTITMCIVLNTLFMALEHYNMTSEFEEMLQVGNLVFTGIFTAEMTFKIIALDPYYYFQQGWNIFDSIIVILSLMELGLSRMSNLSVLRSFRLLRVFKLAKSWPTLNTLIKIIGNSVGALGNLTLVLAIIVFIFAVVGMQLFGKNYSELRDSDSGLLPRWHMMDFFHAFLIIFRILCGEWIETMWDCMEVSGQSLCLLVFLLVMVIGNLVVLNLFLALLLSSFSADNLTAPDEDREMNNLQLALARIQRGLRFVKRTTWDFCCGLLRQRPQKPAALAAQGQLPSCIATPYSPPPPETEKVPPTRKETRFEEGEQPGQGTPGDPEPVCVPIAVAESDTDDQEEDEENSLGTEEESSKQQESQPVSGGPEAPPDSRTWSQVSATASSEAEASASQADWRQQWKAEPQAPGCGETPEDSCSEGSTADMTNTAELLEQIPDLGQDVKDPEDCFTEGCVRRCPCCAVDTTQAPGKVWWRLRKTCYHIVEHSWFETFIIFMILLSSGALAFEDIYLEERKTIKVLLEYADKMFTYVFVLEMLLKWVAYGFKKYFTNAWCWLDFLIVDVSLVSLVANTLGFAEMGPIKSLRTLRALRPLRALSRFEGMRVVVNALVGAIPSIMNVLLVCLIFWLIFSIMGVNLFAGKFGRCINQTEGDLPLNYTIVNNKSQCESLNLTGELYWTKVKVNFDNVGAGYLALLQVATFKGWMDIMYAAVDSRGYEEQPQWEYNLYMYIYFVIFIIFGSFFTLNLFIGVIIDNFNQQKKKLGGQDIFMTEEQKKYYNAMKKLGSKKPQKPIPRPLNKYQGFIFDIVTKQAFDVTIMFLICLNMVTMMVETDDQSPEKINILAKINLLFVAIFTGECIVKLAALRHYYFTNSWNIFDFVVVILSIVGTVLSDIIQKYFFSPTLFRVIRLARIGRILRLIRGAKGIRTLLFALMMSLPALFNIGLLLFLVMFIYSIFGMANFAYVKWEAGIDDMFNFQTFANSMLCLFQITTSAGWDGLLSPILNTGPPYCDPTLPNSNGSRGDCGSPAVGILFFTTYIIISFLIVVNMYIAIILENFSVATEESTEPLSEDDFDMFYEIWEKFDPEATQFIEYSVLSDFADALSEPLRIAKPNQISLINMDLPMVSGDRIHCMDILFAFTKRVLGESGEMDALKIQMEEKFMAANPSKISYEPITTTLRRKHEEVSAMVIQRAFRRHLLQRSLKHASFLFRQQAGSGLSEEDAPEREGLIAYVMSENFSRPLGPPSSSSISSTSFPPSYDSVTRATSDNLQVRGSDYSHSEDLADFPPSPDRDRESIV
Text: (§2) Full curve IC50 (µM) for hERG (human ether-a-go-go-related gene) and the cardiac ion channel panel (sodium and potassium ion channels; Nav1.5, IKs, Kv4.3), along with the L-type Calcium channel (Cav-1.2 Ver; verapamil, DIL; diltiazem), HepG2 C3A 3D spheroids, HepG2 C3A (2D cultures in glucose or galactose media), and THP1 cytotoxicity.

IKs = IKs (Homo sapiens, UniProt P51787); experiment: Cardiac ion channel panel; format: cell-based; details: Full curve
IKs, sequence (P51787 whole entry): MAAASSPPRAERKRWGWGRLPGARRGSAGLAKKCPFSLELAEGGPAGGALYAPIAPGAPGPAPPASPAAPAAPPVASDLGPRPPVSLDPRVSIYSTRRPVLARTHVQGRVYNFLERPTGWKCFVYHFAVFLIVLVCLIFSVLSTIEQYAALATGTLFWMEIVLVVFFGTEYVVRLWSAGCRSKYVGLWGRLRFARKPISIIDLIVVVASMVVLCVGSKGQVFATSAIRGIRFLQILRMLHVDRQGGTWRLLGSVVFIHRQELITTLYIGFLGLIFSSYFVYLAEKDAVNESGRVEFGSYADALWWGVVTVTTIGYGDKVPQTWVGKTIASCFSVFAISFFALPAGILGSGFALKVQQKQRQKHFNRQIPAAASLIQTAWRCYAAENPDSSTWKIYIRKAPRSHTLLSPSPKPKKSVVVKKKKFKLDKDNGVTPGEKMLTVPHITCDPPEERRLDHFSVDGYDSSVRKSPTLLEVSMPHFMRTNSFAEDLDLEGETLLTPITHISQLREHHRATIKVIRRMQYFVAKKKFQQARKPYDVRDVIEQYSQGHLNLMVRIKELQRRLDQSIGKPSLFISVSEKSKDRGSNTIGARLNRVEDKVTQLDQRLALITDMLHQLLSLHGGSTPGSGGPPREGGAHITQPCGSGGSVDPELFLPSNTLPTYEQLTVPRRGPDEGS
Text: as §2

Kv4.3 = Kv4.3 (Homo sapiens, UniProt Q9UK17); experiment: Cardiac ion channel panel; format: cell-based; details: Full curve
Text: as §2

hERG = hERG (Homo sapiens, UniProt Q12809); experiment: hERG safety assay; format: cell-based; details: Full curve
Text: as §2

86 targets = experiment: Secondary pharmacology profiling against 86 targets (Eurofins); details: BID dosing of 3, 10 or 30 mg/kg for 7 days
Procedure: as §1

HepG2 Spheroid = experiment: HepG2 C3A 3D spheroid cytotoxicity; format: cell-based; details: 3D spheroids; read-out: HepG2 Spheroid Cytotox IC50
Text: as §2

[9] = Antagonist, read-out: Functional IC50 or EC50

Work on `Cn1cc2cc(-c3cc4[nH]nc(C5CC5)c4n(-c4ccc(OC(F)F)cc4)c3=O)ccc2n1` [AZ’9567] yielded a Ki (NK1 neurokinin receptor) of 10.2 µM, a Ki (5-HT4 receptor) of 10.3 µM and a Ki [1] of 24.8 µM. The Ki (α1A adrenoceptor) was 12.7 µM, the Ki [2] was 33.3 µM and the Ki (M2 muscarinic receptor [3]) was 1.8 µM. It also gave a Ki (5-HT2B receptor) of 32.4 µM, a Ki [4] of 50.6 µM and a Ki (AT1 angiotensin receptor) of 12.7 µM. The Ki (CB1 cannabinoid receptor [5]) was 30.3 µM, the “brain penetrance Kpu,u” value [6] was 0.03 ± 0.01 and the “Pharmacological mode of action” value (5-HT7 receptor) was “Antagonist”. The IC50 (5-HT7 receptor; [9]) was 2.9 µM, the “Functional IC50 or EC50” value (A1 adenosine receptor) was greater than 30.1 µM and the “Pharmacological mode of action” value (M2 muscarinic receptor [7]) was “Antagonist”. The IC50 (M2 muscarinic receptor [7]; [9]) was 17.1 µM, the “Pharmacological mode of action” value (α1B adrenoceptor) was “Antagonist” and the IC50 (α1B adrenoceptor; [9]) was 28.9 µM. The “Functional IC50 or EC50” value (A2A adenosine receptor) was greater than 100 µM, the “Functional IC50 or EC50” value (CB1 cannabinoid receptor [8]) was greater than 100 µM and the IC50 (NaV1.5) was greater than 40 µM. The IC50 (IKs) was greater than 33.3 µM, the IC50 (Kv4.3) was greater than 40 µM and the IC50 (hERG) was 33.1 µM. For the same compound, the “cover of secondary pharmacology targets by plasma free Cmax in rats” value (86 targets) was “none of these targets was covered” and the IC50 (HepG2 Spheroid) was 58.7 µM.

From publication PMC11272821, “Mechanistic safety assessment via multi-omic characterisation of systemic pathway perturbations following in vivo MAT2A inhibition” (Archives of Toxicology, 2024)
